# Source: ChEMBL document CHEMBL5257034, “Hybrid molecules: The privileged scaffolds for various pharmaceuticals” (Eur J Med Chem, 2016)
# Key:
# [1] = test system: Pichia norvegensis; assay: Antifungal activity against Candida mycoderma incubated for 24 hrs; format: functional
# [2] = test system: Mycobacterium tuberculosis; assay: Antibacterial activity against Mycobacterium tuberculosis H37Rv assessed as reduction in relative light unit at 5.2 microg/ml incubated for 72 hrs by luciferase reporter phage assay relative to control; format: functional; design: scale not given: the % may be the effect or the level left; details: dose 5.2 µg/ml
# [3] = test system: Aspergillus niger; assay: Antifungal activity against Aspergillus niger assessed as zone of inhibition; format: functional
# [4] = test system: Candida albicans; assay: Antifungal activity against Candida albicans assessed as zone of inhibition; format: functional
# [5] = test system: Mycobacterium tuberculosis; assay: Antibacterial activity against Mycobacterium tuberculosis H37Rv; format: functional
# [6] = test system: Mycobacterium tuberculosis; assay: Antibacterial activity against Mycobacterium tuberculosis H37Rv by alamar blue method; format: functional
# [7] = test system: Mus musculus; assay: Antiinflammatory activity against ear oedema mouse model assessed as inhibition of xylene induced edema; format: functional
# [8] = test system: Plasmodium falciparum; assay: Antiplasmodial activity against Plasmodium falciparum W2 infected in red blood cells (unknown origin) incubated for 72 hrs by LDH assay; format: functional, organism-based, Red blood cell; details: W2, Erythrocyte
# [9] = test system: Mycobacterium tuberculosis; assay: Antibacterial activity against Mycobacterium tuberculosis; format: functional
# [10] = test system: Plasmodium falciparum; assay: Antimalarial activity against chloroquine-sensitive Plasmodium falciparum 3D7; format: functional
# [11] = test system: Candida albicans; assay: Antifungal activity against Candida albicans; format: functional, organism-based
# [12] = test system: Mycobacterium tuberculosis; assay: Antibacterial activity against Mycobacterium tuberculosis H37Rv (ATTCC 27294) by alamar blue based broth dilution assay; format: functional
# [13] = test system: Candida albicans; assay: Antifungal activity against Candida albicans ATCC 2091; format: functional
# [14] = test system: Aspergillus niger; assay: Antifungal activity against Aspergillus niger ATCC 9029; format: functional
# [15] = test system: Pichia kudriavzevii; assay: Antifungal activity against Candida krusei ATCC 6258; format: functional
# [16] = test system: Meyerozyma guilliermondii; assay: Antifungal activity against Meyerozyma guilliermondii assessed as zone of inhibition; format: functional
# [17] = test system: Candida albicans; assay: Antifungal activity against Candida albicans ATCC 76615 incubated for 24 hrs by microbroth dilution method; format: functional
# [18] = test system: MCF7; assay: Cytotoxicity against human MCF7 cells measured 24 hrs by MTT assay; format: functional, cell-based; details: MCF7, 24 h
# [19] = test system: Mycobacterium tuberculosis; assay: Antibacterial activity against Mycobacterium tuberculosis H37Rv assessed as reduction in relative light unit at 2 microg/ml incubated for 72 hrs by luciferase reporter phage assay relative to control; format: functional; design: scale not given: the % may be the effect or the level left; details: dose 2 µg/ml
# [20] = test system: Mycobacterium tuberculosis; assay: Potency index, ratio of pyrazinamide MIC to test compound MIC for antibacterial activity against Mycobacterium tuberculosis H37Rv; format: functional
compound,measurement,setting,value
O=C1c2cccc3c(Br)ccc(c23)C(=O)N1CCCn1c[n+](Cc2ccc(F)cc2F)cn1.[Br-],MIC,[1],4 µg/mL
CC(=O)OC[C@H]1O[C@@H](OCc2cn(Cc3ccc4ccccc4n3)nn2)[C@H](OC(C)=O)[C@@H](OC(C)=O)[C@@H]1OC(C)=O,Activity,[2],76.41%
COc1ccc(-c2nc(-c3ccccc3)c(-c3ccccc3)n2C(NN2CCNCC2)c2ccccc2)c(OC)c1OC (stereo not drawn),inhibition zone (IZ),[3],27 mm
same,inhibition zone (IZ),[4],28 mm
NC(=O)c1cnccn1 [PYRAZINAMIDE],MIC,[5],50.1 µM
NNC(=O)c1ccncc1 [ISONIAZID],MIC,[5],0.2 µg/mL
O=C(O)c1cn(C2CC2)c2cc(N3CCNCC3)c(F)cc2c1=O [CIPROFLOXACIN],MIC,[6],4.7 µg/mL
CS(=O)(=O)c1ccc(-c2nc(S(C)(=O)=O)nn2-c2ccc(Br)cc2)cc1,inhibition (INH),[7],70.8%
COC1=CC(=O)C[C@@H](C)[C@]12Oc1c(Cl)c(OC)cc(OC)c1C2=O [GRISEOFULVIN],inhibition zone (IZ),[3],36 mm
same,inhibition zone (IZ),[4],39 mm
COc1cc(Nc2nc(OCc3cn(CCNc4cccc5cc(Cl)ccc45)nn3)nc(N(C)C)n2)cc(OC)c1,IC50,[8],1150 nM
O=C1NN=C(/N=C/c2cccc(Cl)c2)/C1=N\Nc1nc2c([N+](=O)[O-])cccc2s1,MIC,[9],1.66 µg/mL
CC1=C(c2nnc(/N=C3\C(=O)Nc4ccc(Cl)cc43)o2)C(c2ccccc2)NC(=S)N1 (stereo not drawn),MIC,[10],0.035 µg/mL
Cc1cccc(C)c1Nc1nc(OCc2cn(CCCNc3cccc4cc(Cl)ccc34)nn2)nc(N(C)C)n1,IC50,[8],730 nM
COc1cc(Nc2nc(OCc3cn(CCCNc4cccc5cc(Cl)ccc45)nn3)nc(N3CCOCC3)n2)cc(OC)c1,IC50,[8],1730 nM
CSc1nc(-c2ccc(S(N)(=O)=O)cc2)n(-c2ccc(F)cc2)n1,inhibition (INH),[7],75%
COc1ccc(-c2nc(-c3ccccc3)c(-c3ccccc3)n2C(NN(c2ccccc2)c2cccc3ccccc23)c2ccccc2)c(OC)c1OC (stereo not drawn),inhibition zone (IZ),[3],24 mm
same,inhibition zone (IZ),[4],20 mm
COc1cc(Nc2nc(OCc3cn(CCCNc4cccc5cc(Cl)ccc45)nn3)nc(N(C)C)n2)cc(OC)c1,IC50,[8],1200 nM
NC(=O)OC[C@H](O)[C@@H](O)[C@H](N)C(=O)N[C@H](C(=O)O)[C@H]1O[C@@H](n2cc(C(=O)O)c(=O)[nH]c2=O)[C@H](O)[C@@H]1O,MIC,[11],320 µg/mL
O=C1Oc2cc(OCCN(N3CCOCC3)N3CCOCC3)ccc2C2c3ccccc3OC12 (stereo not drawn),MIC,[5],3.12 µg/mL
COc1ccc(-c2nc(-c3ccccc3)c(-c3ccccc3)n2C(NN2CCCCC2)c2ccccc2)c(OC)c1OC (stereo not drawn),inhibition zone (IZ),[3],26 mm
same,inhibition zone (IZ),[4],29 mm
O=C1Nc2cc3c(-c4ccccc4)c(-c4ccccc4)oc(=O)c3cc2C(c2ccccc2Cl)N1 (stereo not drawn),MIC,[5],62.5 µg/mL
Cn1ccnc1-c1nn2cc(-c3ccc(-c4ccc([N+](=O)[O-])cc4)cc3)nc2s1,MIC,[12],3.14 µg/mL
O=C1Nc2cc3c(-c4ccccc4)c(-c4ccccc4)oc(=O)c3cc2C(c2ccc([N+](=O)[O-])cc2)N1 (stereo not drawn),MIC,[5],40 µg/mL
O=C(/C=C/c1ccc(Cl)cc1Cl)c1ccc(OCC(O)(Cn2cncn2)c2ccc(F)cc2F)cc1 (stereo not drawn),MIC50,[11],0.12 µg/mL
CSc1nc(-c2ccc(S(N)(=O)=O)cc2)n(-c2ccc(Cl)cc2)n1,inhibition (INH),[7],80%
CCN(CC)CCCC(C)Nc1ccnc2cc(Cl)ccc12 (stereo not drawn) [CHLOROQUINE],MIC,[10],0.125 µg/mL
COc1ccc(-c2nc(-c3ccccc3)c(-c3ccccc3)n2C(NN(c2ccccc2)c2ccccc2)c2ccccc2)c(OC)c1OC (stereo not drawn),inhibition zone (IZ),[3],27 mm
same,inhibition zone (IZ),[4],28 mm
CCn1cc(C(=O)NN2C(=O)CSC2c2ccccc2OC)c(=O)c2cc(F)c(N3CCNCC3)cc21 (stereo not drawn),MIC,[13],3.12 µg/mL
same,MIC,[14],12.5 µg/mL
same,MIC,[15],1.59 µg/mL
CC1(C)CC[C@]2(C(=O)O)CC[C@]3(C)C(=CC[C@@H]4[C@@]5(C)CC[C@H](OC(=O)/C=C/c6ccccc6)C(C)(C)[C@@H]5CC[C@]43C)[C@@H]2C1,inhibition zone (IZ),[16],31 mm
O=C1Nc2cc3c(-c4ccccc4)c(-c4ccccc4)oc(=O)c3cc2C(c2ccc(Cl)cc2)N1 (stereo not drawn),MIC,[5],50 µg/mL
NC(Cc1cc2ccccc2c2ccccc12)C(=O)N[C@H](C(=O)O)[C@H]1O[C@@H](n2ccc(=O)[nH]c2=O)[C@H](O)[C@@H]1O (stereo partly drawn),IC50,[11],0.31 µg/mL
Clc1ccc(Cn2c[n+](CCCCCC[n+]3cnn(Cc4ccc(Cl)cc4Cl)c3)cn2)c(Cl)c1.[Br-].[Br-],MIC,[17],22.9 µg/mL
CC[C@@H](CO)NCCN[C@@H](CC)CO [ETHAMBUTOL],MIC,[5],7.6 µM
Cc1cccc(C)c1Nc1nc(OCc2cn(CCNc3cccc4cc(Cl)ccc34)nn2)nc(N(C)C)n1,IC50,[8],1690 nM
c1c[nH]c(Cc2nc3ccccc3c3cc[nH]c23)c1,MIC,[6],3.3 µg/mL
CCCCCCCCCCC(=O)N[C@H](C(=O)O)[C@H]1O[C@@H](n2ccc(=O)[nH]c2=O)[C@H](O)[C@@H]1O,MIC,[11],40 µg/mL
COc1cc(/C=C/c2ccc(O)c(/C=N/NC(N)=S)c2)cc(OC)c1,IC50,[18],25 µM
CCCCCCCCCCCCCCCC[n+]1cnn(Cc2ccc(Cl)cc2Cl)c1.[Br-],MIC,[17],30 µg/mL
CO[C@H]1/C=C/O[C@@]2(C)Oc3c(C)c(O)c4c(O)c(c(/C=N/N5CCN(C)CC5)c(O)c4c3C2=O)NC(=O)/C(C)=C\C=C\[C@H](C)[C@H](O)[C@@H](C)[C@@H](O)[C@@H](C)[C@H](OC(C)=O)[C@@H]1C [RIFAMPIN],Activity,[19],87%
O=C1Nc2ccccc2C12C(c1cccc([N+](=O)[O-])c1)C([N+](=O)[O-])C1CSCN12 (stereo not drawn),MIC,[5],7.6 µM
same,Ratio,[20],6.7
O=C(NN1C(=O)CSC1c1ccc([N+](=O)[O-])cc1)c1ccc(NCN2c3ccccc3Sc3ccccc32)cc1 (stereo not drawn),MIC,[5],3.12 µg/mL
CS(=O)(=O)c1ccc(-c2nc(S(C)(=O)=O)nn2-c2ccc(Cl)cc2)cc1,inhibition (INH),[7],77.2%
OC(Cn1cncn1)(Cn1cncn1)c1ccc(F)cc1F [FLUCONAZOLE],inhibition zone (IZ),[16],21 mm
same,MIC,[1],4 µg/mL
same,MIC,[13],6.25 µg/mL
same,MIC,[14],12.5 µg/mL
same,MIC,[15],3.12 µg/mL
same,MIC,[17],52.2 µg/mL
Cc1ccc(-c2cc(C(F)(F)F)nn2-c2ccc(S(N)(=O)=O)cc2)cc1 [CELECOXIB],inhibition (INH),[7],64.9%
C[C@@H]([C@H](N)C(=O)N[C@H](C(=O)O)[C@H]1O[C@@H](n2ccc(=O)[nH]c2=O)[C@H](O)[C@@H]1O)[C@H](O)c1ccc(O)cn1 [NIKKOMYCIN],IC50,[11],0.393 µg/mL
COc1cc(/C=C/c2ccc(O)cc2)cc(OC)c1 [PTEROSTILBENE],IC50,[18],65 µM
